Reference: US10301288B2, “Kinase inhibitors” (Topivert Pharma Limited, priority 2013, dated 2019)
Like-named read-outs stand apart in the source and are kept apart here.

Experiments:
kinases = test: KinomeScan selectivity scores / number of hits; type: binding
Experimental: These assays may be conducted by DiscoverX (formerly Ambit; San Diego, Calif.). The percentage inhibition produced by incubation with a test compound may be calculated relative to the non-inhibited control.

PBMCs [1] = test: (b) LPS-induced TNFα/IL-8 release in PBMC cells; type: cell-based; settings: Homo sapiens
[2] = Hepatic microsomal stability, rat; type: in vitro ADME; settings: pooled liver microsomes, read-out: Mean intrinsic clearance
Experimental: (§1) • Microsomal stability assays were performed with incubations of test compounds at 0.1 μM (n=2, final DMSO concentration 0.25%), and carried out using pooled human, […], rat and Cynomolgus macaque hepatic microsomes from Xenotech (Lots 1210153, 0810143 and 1110042, respectively) at 0.25 mg protein/mL in the presence of cofactor, NADPH. The incubations were performed at 37° C. with 100 μL aliquots taken from the incubation, at 0, 2, 5, 10 and 20 minutes (and, in the case of Cynomolgus macaque hepatic microsomes, 40 minutes) and reactions terminated by addition of 100 μL of acetonitrile containing carbamazepine as analytical internal standard. […] Half-life values were calculated from the relationship T1/2 (min)=−0.693/λ • where λ was the slope of the Ln concentration vs time curve. • The in vitro intrinsic clearance, Clint (mL/min/kg), was calculated and scaled to hepatic extraction ratios using the following scaling parameters and formulae.
(§2) Formulae Clint(tissue clearance) mL/min/kg=[0.693/t½ (min)]×[1/microsomal protein concentration mg/mL]×[mg microsomes/g liver]×[g liver/kg body weight] […] Half-life values were calculated from the relationship T1/2 (min)=−0.693/λ • where λ was the slope of the Ln concentration vs time curve. • Standard compounds testosterone, midazolam and 4-methylumbelliferone are included in the assay design.

[3] = Pharmacokinetics and colon distribution in rats; type: in vivo, male Wistar rats; settings: for concentration at 0.5 h: time cell blank (0.5 hr per method)
Experimental: 30 male Wistar rats were divided into two groups: Group I (p.o.: 5 mg/kg) and Group II (i.v.: 0.25 mg/kg). […] From each rat, blood samples (approximately 120 μL) were collected from retro orbital plexus such that samples were obtained at pre-dose, 0.05, 0.13, 0.25, 0.5, 1, 2, 4, 8, and 24 hr (i.v.) and pre-dose, 0.5, 1, 2, 4, 6, 8, 12 and 24 hr (p.o.). Immediately after collection, plasma was harvested from blood by centrifugation and stored at −70° C. until analysis. Following collection of blood sample, the animals (Group I) were humanely euthanized by carbon dioxide asphyxiation. The total colon was isolated, flushed with cold phosphate buffer saline (pH 7.4) to remove contents and weighed. The total colon tissues homogenized with ice-cold phosphate buffered saline, pH 7.4. Buffer volume to be used for homogenization was twice the weight of tissue. All the samples were stored below −70° C. until bioanalysis. Total colon tissue homogenate volume was three times. Plasma and total colon tissue samples were quantified by LC-MS/MS method (LLOQ in plasma and total colon tissue=0.5 ng/mL).

B-Raf = B-Raf (Homo sapiens (Human), UniProt P15056); test: KINOMEscan enzyme binding assay, B-Raf
Experimental: Kinase enzyme binding activities of compounds disclosed herein may be determined using a proprietary assay which measures active site-directed competition binding to an immobilized ligand (Fabian, M. A. et al., Nature Biotechnol., 2005, 23:329-336). These assays may be conducted by DiscoverX (formerly Ambit; San Diego, Calif.). The percentage inhibition produced by incubation with a test compound may be calculated relative to the non-inhibited control.

[4] = Hepatic microsomal stability, dog; type: in vitro ADME; settings: pooled liver microsomes, read-out: Mean intrinsic clearance
Experimental: as §1, §2

[5] = Chemical stability in solid form at 40° C. and 75% relative humidity; type: physicochemical
Experimental: The results of the study are reported in the table below (where chemical purity was assessed using HPLC).

PBMCs [6] = test: (i) Cell mitosis assay in PBMCs; type: cell-based; settings: Homo sapiens, PBMC, 5 μg/mL
Experimental: PBMCs from healthy subjects are separated from whole blood (Quintiles, London, UK) using a density gradient (Histopaque®-1077, Sigma-Aldrich, Poole, UK). The PBMCs (3 million cells per sample) are subsequently treated with 2% PHA (Sigma-Aldrich, Poole, UK) for 48 hr, followed by a 20 hr exposure to varying concentrations of test compounds. At 2 hr before collection, PBMCs are treated with demecolcine (0.1 μg/mL; Invitrogen, Paisley, UK) to arrest cells in metaphase. […] Fluorescence is observed using an ATTUNE flow cytometer (Invitrogen, Paisley, UK), gating for lymphocytes.

[7] = male, Wistar, colon, po, rat, 5 mg/kg p.o., read-out: Mean concentration, Colon
[8] = male, Wistar, plasma, po, rat, 5 mg/kg p.o., read-out: Mean concentration, Plasma
[9] = male, Wistar, plasma, Rat, 0.25 mg/kg intravenous
[10] = male, Wistar, po, Rat, 5 mg/kg p.o., Plasma
[11] = male, Wistar, po, Rat, 5 mg/kg p.o., Total colon

Sequence of B-Raf (P15056 whole entry): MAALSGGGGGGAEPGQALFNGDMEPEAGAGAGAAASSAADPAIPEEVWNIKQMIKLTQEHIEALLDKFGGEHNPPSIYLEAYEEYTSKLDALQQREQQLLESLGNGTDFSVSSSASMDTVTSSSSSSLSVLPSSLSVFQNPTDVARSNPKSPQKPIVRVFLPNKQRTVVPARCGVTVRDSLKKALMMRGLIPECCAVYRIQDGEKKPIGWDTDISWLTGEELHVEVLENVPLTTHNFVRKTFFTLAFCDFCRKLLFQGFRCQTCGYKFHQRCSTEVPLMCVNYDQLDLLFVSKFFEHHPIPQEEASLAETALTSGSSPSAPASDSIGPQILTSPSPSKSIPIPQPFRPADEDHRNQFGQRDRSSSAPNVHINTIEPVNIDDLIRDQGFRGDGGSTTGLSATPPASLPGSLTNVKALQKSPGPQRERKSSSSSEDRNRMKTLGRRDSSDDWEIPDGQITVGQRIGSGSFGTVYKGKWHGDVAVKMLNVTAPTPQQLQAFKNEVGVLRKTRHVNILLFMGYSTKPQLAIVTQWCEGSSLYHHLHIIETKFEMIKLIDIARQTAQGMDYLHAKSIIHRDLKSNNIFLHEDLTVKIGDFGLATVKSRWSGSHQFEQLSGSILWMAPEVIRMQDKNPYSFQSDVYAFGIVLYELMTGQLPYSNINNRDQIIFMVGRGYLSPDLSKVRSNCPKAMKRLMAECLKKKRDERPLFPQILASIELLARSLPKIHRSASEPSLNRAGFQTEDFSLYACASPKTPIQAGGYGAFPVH

- microsomal CLint at 0.1 μM [2]: 199 µL/min/mg
- Fpo ([3]; Rat, 5 mg/kg p.o., Plasma): 0.04%
- concentration at 1 h [3, 7]: 1.9 ng/g
- concentration at 2 h [3, 7]: 4 ng/g
- concentration at 4 h [3, 7]: 339 ng/g
- concentration at 6 h [3, 7]: 1860 ng/g
- concentration at 8 h [3, 7]: 2000 ng/g
- concentration at 12 h [3, 7]: 597 ng/g
- concentration at 24 h [3, 7]: 53.9 ng/g
- concentration at 0.5 h [3, 7]: 3.3 ng/g
- concentration at 1 h [3, 8]: 0.9 ng/mL
- concentration at 2 h [3, 8]: 0.6 ng/mL
- concentration at 4 h [3, 8]: 2.7 ng/mL
- concentration at 6 h [3, 8]: 1.7 ng/mL
- concentration at 8 h [3, 8]: 0.6 ng/mL
- concentration at 12 h [3, 8]: 0.7 ng/mL
- concentration at 24 h [3, 8]: 1.8 ng/mL
- concentration at 0.5 h [3, 8]: 0.8 ng/mL
- AUC(0-inf) [3, 9]: 0.691 µg·h/mL
- AUC(0-t) [3, 9]: 0.682 µg·h/mL
- C0 [3, 9]: 5360 ng/mL
- Vd [3, 9]: 0.3 L/kg
- clearance [3, 9]: 0.378 L/h/kg
- half-life [3, 9]: 2.2 h
- AUC(0-t) [3, 10]: 0.0048 µg·h/mL
- Cmax [3, 10]: 2.7 ng/mL
- Tmax [3, 10]: 4 h
- AUC(0-inf) [3, 11]: 15.8 µg·h/mL
- AUC(0-t) [3, 11]: 15.5 µg·h/mL
- Cmax [3, 11]: 2000 ng/mL
- Tmax [3, 11]: 8 h
- Mean concentration, Colon ([3]; rat, 5 mg/kg p.o., Pre-dose): 0.0 ng/g
- Mean concentration, Plasma ([3]; rat, 5 mg/kg p.o., Pre-dose): 0 µg/mL
- effect on the binding of B-Raf to its standard ligand (B-Raf): did not have any effect
- microsomal CLint at 0.1 μM [4]: > 554 µL/min/mg
- chemical purity (HPLC), solid form ([5]; 0 months): 98.52%
- chemical purity (HPLC), solid form ([5]; 1 month, 40° C./75% RH): 96.88%
- chemical purity (HPLC), solid form ([5]; 3 months, 40° C./75% RH): 94.32%
SMILES: C#Cc1cc(Nc2nccc(Oc3ccc(NC(=O)Nc4cc(C(C)(C)C)nn4-c4ccc(C)cc4)c4ccccc34)n2)cc(C(=O)NCCOCCOCCOC)c1 [Example 2, 3-((4-((4-(3-(3-(tert-Butyl)-1-(p-tolyl)-1H-pyrazol-5-yl)ureido)naphthalen-1-yl)oxy)pyrimidin-2-yl)amino)-5-ethynyl-N-(2-(2-(2-methoxyethoxy)ethoxy)ethyl)-benzamide]
- KinomeScan S(1) number of hits (kinases; 50 nM): 0
- KinomeScan S(10) number of hits (kinases; 50 nM): 8
- KinomeScan S(35) number of hits (kinases; 50 nM): 32
- KinomeScan S(1) number of hits (kinases; 500 nM): 4
- KinomeScan S(10) number of hits (kinases; 500 nM): 39
- KinomeScan S(35) number of hits (kinases; 500 nM): 92
- IC50 (PBMCs [1]; read-out: IC50 for Inhibition of Cytokine Release, IL-8): 2 nM
- IC50 (PBMCs [1]; read-out: IC50 for Inhibition of Cytokine Release, TNFα): 0.7 nM
- inhibition at 5 µg/mL (PBMCs [6]): 18.7%
